Assay results reported in patent publication US6737383B1, “Herbicidal oxadiazolidines” (priority 1999, dated 2004).

Assays:
soybean = assay: Test B pre/postemergence soybean; type: in vivo, Glycine max
Outline: (§1)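 Test chemicals in a non-phytotoxic solvent mixture with surfactant were sprayed preemergence onto planted seeds and postemergence onto plants 2 to 18 cm tall (1- to 4-leaf stage). After twelve to sixteen days in a greenhouse, injury was visually rated against untreated controls from 0 (no effect) to 10 (complete control).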

corn = assay: Test B pre/postemergence corn; type: in vivo, Zea mays
Outline: as §1

purple nutsedge = assay: Test B pre/postemergence purple nutsedge; type: in vivo, Cyperus rotundus
Outline: as §1

smallflower flatsedge = assay: Test B flood test smallflower flatsedge; type: in vivo, Cyperus difformis
Outline: (§2)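 Each value is a visual injury score relative to controls, with 10 meaning complete control and 0 no effect. Evaluation took place twelve to sixteen days after the 2-leaf-stage plants were treated and kept in the greenhouse.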

rape = assay: Test B pre/postemergence rape; type: in vivo, Brassica napus
Outline: as §1

surinam grass = assay: Test B pre/postemergence surinam grass; type: in vivo, Brachiaria decumbens
Outline: as §1

wild oat = assay: Test B pre/postemergence wild oat; type: in vivo, Avena fatua
Outline: as §1

pigweed = assay: Test B pre/postemergence pigweed; type: in vivo, Amaranthus retroflexus
Outline: as §1

rice = assay: Test B flood test rice; type: in vivo, Oryza sativa
Outline: as §2

velvetleaf = assay: Test B pre/postemergence velvetleaf; type: in vivo, Abutilon theophrasti
Outline: as §1

bamyardgrass = assay: Test B flood test barnyardgrass; type: in vivo, Echinochloa crus-galli
Outline: as §2

cocklebur = assay: Test B pre/postemergence cocklebur; type: in vivo, Xanthium strumarium
Outline: as §1

blackgrass = assay: Test B pre/postemergence blackgrass; type: in vivo, Alopecurus myosuroides
Outline: as §1

morningglory = assay: Test B pre/postemergence morningglory; type: in vivo, Ipomoea hederacea
Outline: as §1

bedstraw = assay: Test B pre/postemergence bedstraw; type: in vivo, Galium aparine
Outline: as §1

sugar beet = assay: Test B pre/postemergence sugar beet; type: in vivo, Beta vulgaris
Outline: as §1

[1] = Postemergence, Rate 125 g/ha, scale of 0 to 10 where 0 is no effect and 10 is complete control
[2] = Preemergence, Rate 62 g/ha, scale of 0 to 10 where 0 is no effect and 10 is complete control
[3] = Preemergence, Rate 125 g/ha, 0 is no effect, 10 is complete control
[4] = Preemergence, Rate 250 g/ha, scale 0 to 10, 0 is no effect, 10 is complete control
[5] = Preemergence, Rate 500 g/ha, scale 0 to 10 (0 no effect, 10 complete control)
[6] = Rate 62 g/ha, Postemergence, scale of 0 to 10 where 0 is no effect and 10 is complete control
[7] = Rate 250 g/ha, Postemergence, scale 0 to 10, 0 is no effect, 10 is complete control
[8] = Rate 500 g/ha, Postemergence, scale 0 to 10
[9] = Postemergence (flood test species), Rate 125 g/ha, scale of 0 to 10 where 0 is no effect and 10 is complete control
[10] = Rate 62 g/ha, Postemergence section, flood test species, scale of 0 to 10 where 0 is no effect and 10 is complete control
[11] = Rate 250 g/ha, Postemergence (flood test), scale 0 to 10, 0 is no effect, 10 is complete control
[12] = Rate 500 g/ha, listed under Postemergence (flood test species), scale 0 to 10

CC(C)N(C(=O)n1oc(=O)n(-c2nc(Cl)sc2Cl)c1=O)c1ccc(F)cc1 [Compound 160]
0: Soybean plant response rating (soybean; [1]) | Soybean plant response rating (soybean; [2]) | Soybean plant response rating (0 to 10 scale) (soybean; [3]) | Soybean plant response rating (soybean; [4]) | Soybean plant response rating (soybean; [5]) | Soybean plant response rating (soybean; [6]) | Plant response rating, Soybean (soybean; [7]) | Soybean plant response rating (soybean; [8]) | Corn plant response rating (corn; [1]) | Corn plant response rating (corn; [2]) | Corn plant response rating (0 to 10 scale) (corn; [3]) | Corn plant response rating (corn; [4]) | Corn plant response rating (corn; [5]) | Corn plant response rating (corn; [6]) | Plant response rating, Corn (corn; [7]) | Corn plant response rating (corn; [8]) | Nutsedge plant response rating (purple nutsedge; [1]) | Nutsedge plant response rating (purple nutsedge; [2]) | Nutsedge plant response rating (0 to 10 scale) (purple nutsedge; [3]) | Nutsedge plant response rating (purple nutsedge; [4]) | Nutsedge plant response rating (purple nutsedge; [5]) | Nutsedge plant response rating (purple nutsedge; [6]) | Plant response rating, Nutsedge (purple nutsedge; [7]) | Nutsedge plant response rating (purple nutsedge; [8]) | S. Flatsedge plant response rating (smallflower flatsedge; [9]) | S. Flatsedge plant response rating (smallflower flatsedge; [10]) | Plant response rating, S. Flatsedge (smallflower flatsedge; [11]) | S. Flatsedge plant response rating (smallflower flatsedge; [12]) | Rape plant response rating (rape; [1]) | Rape plant response rating (rape; [2]) | Rape plant response rating (0 to 10 scale) (rape; [3]) | Rape plant response rating (rape; [4]) | Rape plant response rating (rape; [5]) | Rape plant response rating (rape; [6]) | Plant response rating, Rape (rape; [7]) | Rape plant response rating (rape; [8]) | B. signalgrass plant response rating (surinam grass; [1]) | B. signalgrass plant response rating (surinam grass; [2]) | B. signalgrass plant response rating (0 to 10 scale) (surinam grass; [3]) | B. signalgrass plant response rating (surinam grass; [4]) | B. signalgrass plant response rating (surinam grass; [5]) | B. signalgrass plant response rating (surinam grass; [6]) | Plant response rating, B. signalgrass (surinam grass; [7]) | B. signalgrass plant response rating (surinam grass; Rate 500 g/ha, Postemergence, scale 0 to 10, 0 no effect, 10 complete control) | Wild oats plant response rating (wild oat; [2]) | Wild oats plant response rating (0 to 10 scale) (wild oat; [3]) | Wild oats plant response rating (wild oat; [4]) | Wild oats plant response rating (wild oat; [5]) | Plant response rating, Wild oats (wild oat; [7]) | Wild oats plant response rating (wild oat; [8]) | Redroot pigweed plant response rating (pigweed; [1]) | Redroot pigweed plant response rating (pigweed; [2]) | Redroot pigweed plant response rating (0 to 10 scale) (pigweed; [3]) | Redroot pigweed plant response rating (pigweed; [4]) | Redroot pigweed plant response rating (pigweed; [5]) | Redroot pigweed plant response rating (pigweed; [6]) | Plant response rating, Redroot pigweed (pigweed; [7]) | Redroot pigweed plant response rating (pigweed; [8]) | Rice plant response rating (rice; [9]) | Rice plant response rating (rice; [10]) | Plant response rating, Rice (rice; [11]) | Rice plant response rating (rice; [12]) | Velvetleaf plant response rating (velvetleaf; [2]) | Velvetleaf plant response rating (0 to 10 scale) (velvetleaf; [3]) | Velvetleaf plant response rating (velvetleaf; [4]) | Velvetleaf plant response rating (velvetleaf; [5]) | Plant response rating, Velvetleaf (velvetleaf; [7]) | Velvetleaf plant response rating (velvetleaf; [8]) | Barnyardgrass plant response rating (bamyardgrass; [9]) | Barnyardgrass plant response rating (bamyardgrass; [10]) | Plant response rating, Barnyardgrass (bamyardgrass; [11]) | Barnyardgrass plant response rating (bamyardgrass; [12]) | Cocklebur plant response rating (cocklebur; [1]) | Cocklebur plant response rating (cocklebur; [2]) | Cocklebur plant response rating (0 to 10 scale) (cocklebur; [3]) | Cocklebur plant response rating (cocklebur; [4]) | Cocklebur plant response rating (cocklebur; [5]) | Cocklebur plant response rating (cocklebur; [6]) | Plant response rating, Cocklebur (cocklebur; [7]) | Cocklebur plant response rating (cocklebur; [8]) | Blackgrass plant response rating (blackgrass; [1]) | Blackgrass plant response rating (blackgrass; [2]) | Blackgrass plant response rating (0 to 10 scale) (blackgrass; [3]) | Blackgrass plant response rating (blackgrass; [4]) | Blackgrass plant response rating (blackgrass; [5]) | Blackgrass plant response rating (blackgrass; [6]) | Plant response rating, Blackgrass (blackgrass; [7]) | Blackgrass plant response rating (blackgrass; [8]) | Morningglory plant response rating (morningglory; [1]) | Morningglory plant response rating (morningglory; [2]) | Morningglory plant response rating (0 to 10 scale) (morningglory; [3]) | Morningglory plant response rating (morningglory; [4]) | Morningglory plant response rating (morningglory; [5]) | Morningglory plant response rating (morningglory; [6]) | Plant response rating, Morningglory (morningglory; [7]) | Morningglory plant response rating (morningglory; [8]) | Bedstraw plant response rating (bedstraw; [1]) | Bedstraw plant response rating (bedstraw; [2]) | Bedstraw plant response rating (0 to 10 scale) (bedstraw; [3]) | Bedstraw plant response rating (bedstraw; [4]) | Bedstraw plant response rating (bedstraw; [5]) | Bedstraw plant response rating (bedstraw; [6]) | Plant response rating, Bedstraw (bedstraw; [7]) | Bedstraw plant response rating (bedstraw; [8]) | Sugarbeets plant response rating (sugar beet; [1]) | Sugarbeets plant response rating (sugar beet; [2]) | Sugarbeets plant response rating (0 to 10 scale) (sugar beet; [3]) | Sugarbeets plant response rating (sugar beet; [4]) | Sugarbeets plant response rating (sugar beet; [5]) | Sugarbeets plant response rating (sugar beet; [6]) | Plant response rating, Sugarbeets (sugar beet; [7]) | Sugarbeets plant response rating (sugar beet; [8])
